In PubChem BioAssay AID248 (DTP/NCI, 2004):
Several values for one entry are separate records, joined by “and”; a condition that tells them apart may be missing. Equal entries are not always repeated. Inconclusive results and toxic doses are left out.

Test system: L1210 leukemia ip in BDF1 mice, survival T/C
Assay: NCI In Vivo Anticancer Drug Screen. Data for tumor model L1210 Leukemia (intraperitoneal) in B6D2F1 (BDF1) mice
Conditions: endpoint: mean survival time, higher = longer survival
Procedure, shortened: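 Tumor was transplanted into mice, which were then dosed with test compound or vehicle alone. Survival was recorded for each group, and the treated figure was expressed relative to the control figure.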

[1] = dose: 100.0 mg/kg/injection, schedule: Q01DX001 (ip), vehicle: saline
[2] = dose: 200.0 mg/kg/injection, schedule: Q01DX001 (ip), vehicle: saline

How did the T/C [1] turn out when `C=CCc1ccc2c(C)cc[n+](C)c2c1O` was run?
The T/C was 91 % of control.

What about the T/C [2] of the same molecule?
Its T/C is 93 % of control.

`O=[As](O)(CC(O)COc1ccccc1)c1ccccc1` (stereo not given) was tested. Which T/C (dose: 6.25 mg/kg/injection, schedule: Q01DX001 (ip), vehicle: saline with Tween-80) did it give?
Its T/C is 98 % of control.

What about the T/C (dose: 12.5 mg/kg/injection, schedule: Q01DX001 (ip), vehicle: saline with Tween-80) of the same molecule?
Its T/C is 98 % of control.

What does the source list for `COC(=O)c1[nH]c(=O)[nH]c(=O)c1[N+](=O)[O-]`?
T/C (dose: 75.0 mg/kg/injection, schedule: Q01DX001 (ip), vehicle: saline): 106 % of control; T/C (dose: 150.0 mg/kg/injection, schedule: Q01DX001 (ip), vehicle: saline): 93 % of control; T/C (dose: 300.0 mg/kg/injection, schedule: Q01DX001 (ip), vehicle: saline): 93 % of control

`O=C(CCc1ccccc1)Nc1ccc(F)cc1` was tested. Which T/C (dose: 100.0 mg/kg/injection, schedule: Q01DX001 (ip), vehicle: saline with Tween-80) did it give?
Its T/C is 95 % of control.

What about the T/C (dose: 100.0 mg/kg/injection, schedule: Q01DX009 (ip), vehicle: saline with Tween-80) of the same molecule?
Its T/C is 97 % of control and 106 % of control.

What about the T/C (dose: 100.0 mg/kg/injection, schedule: Q04DX002 (ip), vehicle: saline with Tween-80) of the same molecule?
The T/C was 94 % of control and 98 % of control.

What about the T/C (dose: 200.0 mg/kg/injection, schedule: Q01DX001 (ip), vehicle: saline with Tween-80) of the same molecule?
The T/C was 95 % of control.

And the T/C (dose: 200.0 mg/kg/injection, schedule: Q01DX009 (ip), vehicle: saline with Tween-80)?
Its T/C is 93 % of control and 95 % of control.

And the T/C (dose: 200.0 mg/kg/injection, schedule: Q04DX002 (ip), vehicle: saline with Tween-80)?
The T/C was 94 % of control and 102 % of control.

What about the T/C (dose: 400.0 mg/kg/injection, schedule: Q01DX001 (ip), vehicle: saline with Tween-80) of the same molecule?
The T/C was 94 % of control.

What about the T/C (dose: 400.0 mg/kg/injection, schedule: Q01DX009 (ip), vehicle: saline with Tween-80) of the same molecule?
The T/C was 98 % of control and 101 % of control.

And the T/C (dose: 400.0 mg/kg/injection, schedule: Q04DX002 (ip), vehicle: saline with Tween-80)?
The T/C was 94 % of control and 97 % of control.

Which T/C (dose: 3.12 mg/kg/injection, schedule: Q01DX009 (ip), vehicle: saline) does the source give for `Cc1ccc(S(=O)(=O)/C(Cl)=C(/Cl)S(=O)(=O)c2ccc(C)cc2)cc1` here?
Its T/C is 95 % of control.

What about the T/C (dose: 6.25 mg/kg/injection, schedule: Q01DX009 (ip), vehicle: saline) of the same molecule?
The T/C was 97 % of control.

What about the T/C (dose: 6.25 mg/kg/injection, schedule: Q04DX003 (ip), vehicle: saline) of the same molecule?
The T/C was 88 % of control.

And the T/C (dose: 12.5 mg/kg/injection, schedule: Q01DX001 (ip), vehicle: saline)?
The T/C was 94 % of control.

What about the T/C (dose: 12.5 mg/kg/injection, schedule: Q01DX009 (ip), vehicle: saline with Tween-80) of the same molecule?
Its T/C is 95 % of control.

What about the T/C (dose: 12.5 mg/kg/injection, schedule: Q04DX003 (ip), vehicle: saline) of the same molecule?
Its T/C is 92 % of control.

What about the T/C (dose: 25.0 mg/kg/injection, schedule: Q01DX001 (ip), vehicle: saline) of the same molecule?
Its T/C is 92 % of control.

What about the T/C (dose: 25.0 mg/kg/injection, schedule: Q01DX009 (ip), vehicle: saline with Tween-80) of the same molecule?
The T/C was 89 % of control.

What about the T/C [2] of the same molecule?
The T/C was 103 % of control.

With `CCCCCCC(C1CCCCC1)C1CCCCC1` as the molecule, how does the T/C (dose: 100.0 mg/kg/injection, schedule: Q01DX001 (ip), vehicle: carboxymethylcellulose (CMC)) read?
The T/C was 86 % of control.

And the T/C (dose: 200.0 mg/kg/injection, schedule: Q01DX001 (ip), vehicle: carboxymethylcellulose (CMC))?
Its T/C is 102 % of control.

And the T/C (dose: 400.0 mg/kg/injection, schedule: Q01DX001 (ip), vehicle: carboxymethylcellulose (CMC))?
The T/C was 91 % of control.

With `COc1c(NC(=O)c2ccc([N+](=O)[O-])cc2)cccc1[N+](=O)[O-]` as the molecule, how does the T/C (dose: 100.0 mg/kg/injection, schedule: Q04DX002 (ip), vehicle: Klucel (hydroxypropylcellulose) (HPC)) read?
The T/C was 89 % of control.

And the T/C (dose: 200.0 mg/kg/injection, schedule: Q04DX002 (ip), vehicle: Klucel (hydroxypropylcellulose) (HPC))?
Its T/C is 95 % of control.

What about the T/C (dose: 400.0 mg/kg/injection, schedule: Q04DX002 (ip), vehicle: Klucel (hydroxypropylcellulose) (HPC)) of the same molecule?
Its T/C is 89 % of control.

How did the T/C (dose: 25.0 mg/kg/injection, schedule: Q01DX015 (ip), vehicle: methylcellulose (MC)) turn out when `CCCCC(=O)N(CC)C(=NCC)c1ccc(NC(=O)c2ccc(C(=O)Nc3ccc(C(=NCC)N(CC)C(=O)CCCC)cc3)cc2)cc1` was run?
Its T/C is 90 % of control.

What about the T/C (dose: 50.0 mg/kg/injection, schedule: Q01DX015 (ip), vehicle: methylcellulose (MC)) of the same molecule?
Its T/C is 90 % of control.

And the T/C (dose: 100.0 mg/kg/injection, schedule: Q01DX015 (ip), vehicle: methylcellulose (MC))?
The T/C was 96 % of control.

What about the T/C (dose: 200.0 mg/kg/injection, schedule: Q01DX015 (ip), vehicle: methylcellulose (MC)) of the same molecule?
Its T/C is 94 % of control.

For `CC1(C)N=C(N)N=C(N)N1c1ccc(OCCCCOc2ccc(S(=O)(=O)F)cc2)cc1`, which T/C (dose: 75.0 mg/kg/injection, schedule: Q01DX001 (ip), vehicle: Klucel (hydroxypropylcellulose) (HPC)) is on record?
Its T/C is 106 % of control.

And the T/C (dose: 150.0 mg/kg/injection, schedule: Q01DX001 (ip), vehicle: Klucel (hydroxypropylcellulose) (HPC))?
The T/C was 91 % of control.

And the T/C (dose: 300.0 mg/kg/injection, schedule: Q01DX001 (ip), vehicle: Klucel (hydroxypropylcellulose) (HPC))?
The T/C was 96 % of control.

How did the T/C [1] turn out when `COP(=O)(OC)C(=O)c1ccc([N+](=O)[O-])cc1` was run?
The T/C was 98 % of control.

And the T/C [2]?
The T/C was 95 % of control.

And the T/C (dose: 400.0 mg/kg/injection, schedule: Q01DX001 (ip), vehicle: saline)?
The T/C was 103 % of control.

What does the source list for `Cc1cc(C)nc(NS(=O)(=O)c2ccc(N=Nc3nc4[nH]c(N)nc(=S)c4[nH]3)cc2)n1`?
T/C (dose: 6.25 mg/kg/injection, schedule: Q01DX009 (ip), vehicle: Klucel (hydroxypropylcellulose) (HPC)): 151 % of control and 177 % of control; T/C (dose: 12.5 mg/kg/injection, schedule: Q01DX009 (ip), vehicle: Klucel (hydroxypropylcellulose) (HPC)): 153 % of control; T/C (dose: 25.0 mg/kg/injection, schedule: Q01DX009 (ip), vehicle: Klucel (hydroxypropylcellulose) (HPC)): 112 % of control; T/C (dose: 200.0 mg/kg/injection, schedule: Q01DX009 (ip), vehicle: Klucel (hydroxypropylcellulose) (HPC)): 102 % of control
